US20230183219A1, “CONDENSED SUBSTITUTED HYDROPYRROLES AS ANTAGONISTS OF THE MUSCARINIC ACETYLCHOLINE RECEPTOR M4” (Vanderbilt University, priority 2020, published 2023)

Molecular target: T1, Human M4 (Homo sapiens, UniProt P08173)
T1 construct: Human or rat M4 cDNA, along with the chimeric G protein Gqi5, were transfected into Chinese hamster ovary (CHO-K1) cells; expressed in transfected cells; host or cells: CHO-K1 (Chinese hamster ovary, ATCC), stably co-expressing Gqi5
T1 sequence (P08173 1-479): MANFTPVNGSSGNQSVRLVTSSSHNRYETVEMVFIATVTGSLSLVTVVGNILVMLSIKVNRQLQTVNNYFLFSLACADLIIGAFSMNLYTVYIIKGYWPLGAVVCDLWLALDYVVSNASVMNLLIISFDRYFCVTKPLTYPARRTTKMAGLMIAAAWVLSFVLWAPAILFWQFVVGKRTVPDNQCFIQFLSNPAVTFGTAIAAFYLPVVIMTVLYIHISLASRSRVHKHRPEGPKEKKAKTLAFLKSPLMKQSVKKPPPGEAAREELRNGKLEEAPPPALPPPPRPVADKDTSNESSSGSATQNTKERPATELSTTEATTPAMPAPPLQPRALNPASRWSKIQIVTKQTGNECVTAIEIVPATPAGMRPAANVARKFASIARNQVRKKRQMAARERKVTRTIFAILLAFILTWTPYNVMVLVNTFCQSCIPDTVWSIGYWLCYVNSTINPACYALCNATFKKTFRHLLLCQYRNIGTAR
Assay: mAChR M4 cell-based functional assay (calcium flux, decrease of EC80 acetylcholine response)
Conditions: for remaining activity at 30 µM: % ACh maximum at 30 μM, read-out: Human M4 Emin; for IC50: M4/Gqi5/CHO-K1 cells, decrease of response to EC80 acetylcholine
How it was run: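 CHO-K1 cells stably co-expressing M4 and chimeric Gqi5, loaded with Fluo-4 AM; calcium flux read on FDSS. Compound added at 2 s, EC20 acetylcholine at 143 s, EC80 acetylcholine at 268 s. IC50 from concentration-dependent decrease of the EC80 response, four-parameter logistic fit; 10-point 1:3 titrations.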

SMILES	remaining activity at 30 µM [%]	IC50 [nM]
[2H]C([2H])(C1CCOCC1)N1C[C@H]2C[C@H](Nc3nnc(-c4ccc5c(c4)ncn5C)cc3C(F)(F)F)C[C@H]2C1 [Example 111, (3aR,5s,6aS)-N-(6-(1-methyl-1H-benzo[d]imidazol-5-yl)-4-(trifluoro-methyl)pyridazin-3-yl)-2-((tetrahydro-2H-pyran-4-yl)methyl-d2)octahydro-cyclopenta[c]pyrrol-5-amine]	3	136
FC(F)(F)c1cc(-c2ccc3ncsc3c2)nnc1N[C@H]1C[C@@H]2CN(CC3CCOCC3)C[C@@H]2C1 [Example 112, (3aR,5s,6aS)-N-(6-(benzo[d]thiazol-6-yl)-4-(trifluoromethyl)pyridazin-3-yl)-2-((tetrahydro-2H-pyran-4-yl)methyl)octahydro-cyclopenta[c]pyrrol-5-amine]	3	8.9
Cc1cnc(F)cc1-c1cc(C(F)(F)F)c(N[C@H]2C[C@@H]3CN(CC4CCOCC4)C[C@@H]3C2)nn1 [Example 113, (3aR,5s,6aS)-N-(6-(2-fluoro-5-methylpyridin-4-yl)-4-(trifluoromethyl)pyridazin-3-yl)-2-((tetrahydro-2H-pyran-4-yl)methyl)octahydro-cyclopenta[c]pyrrol-5-amine]	3	6.1
[2H]C([2H])([C@H]1CCCCO1)N1C[C@H]2C[C@H](Nc3nnc(-c4cc(C)ccc4C)cc3C(F)(F)F)C[C@H]2C1 [Example 114, (3aR,5s,6aS)-N-(6-(2,5-dimethylphenyl)-4-(trifluoro-methyl)pyridazin-3-yl)-2-(((R)-tetrahydro-2H-pyran-2-yl)methyl-d2)octahydro-cyclopenta[c]pyrrol-5-amine]	3	235
[2H]C([2H])([C@@H]1CCOC1)N1C[C@H]2C[C@H](Nc3nnc(-c4cc(C)ccc4C)cc3C(F)(F)F)C[C@H]2C1 [Example 115, (3aR,5s,6aS)-N-(6-(2,5-dimethylphenyl)-4-(trifluoro-methyl)pyridazin-3-yl)-2-(((S)-tetrahydrofuran-3-yl)methyl-d2)octahydro-cyclopenta[c]pyrrol-5-amine]	3	176
[2H]C([2H])([C@H]1CCOC1)N1C[C@H]2C[C@H](Nc3nnc(-c4cc(C)ccc4C)cc3C(F)(F)F)C[C@H]2C1 [Example 116, (3aR,5s,6aS)-N-(6-(2,5-dimethylphenyl)-4-(trifluoro-methyl)pyridazin-3-yl)-2-(((R)-tetrahydrofuran-3-yl)methyl-d2)octahydro-cyclopenta[c]pyrrol-5-amine]	3	266
Cn1cnc2ccc(-c3cc(C(F)(F)F)c(N[C@H]4C[C@@H]5CN(Cc6ccccn6)C[C@@H]5C4)nn3)cc21 [Example 117, (3aR,5s,6aS)-N-(6-(1-methyl-1H-benzo[d]imidazol-6-yl)-4-(trifluoromethyl)pyridazin-3-yl)-2-(pyridin-2-ylmethyl)octahydro-cyclopenta[c]pyrrol-5-amine]	4	345
[2H]C([2H])(C1CCOCC1)N1C[C@H]2C[C@H](Nc3nnc(-c4ccc(OC)cc4C)cc3C(F)(F)F)C[C@H]2C1 [Example 122, (3aR,5s,6aS)-N-(6-(4-methoxy-2-methylphenyl)-4-(trifluoromethyl)pyridazin-3-yl)-2-((tetrahydro-2H-pyran-4-yl)methyl-d2)octahydro-cyclopenta[c]pyrrol-5-amine]	3	33.2
[2H]C([2H])(C1CCOCC1)N1C[C@H]2C[C@H](Nc3nnc(-c4ccc5c(c4)OCC5)cc3C(F)(F)F)C[C@H]2C1 [Example 123, (3aR,5s,6aS)-N-(6-(2,3-dihydro-benzofuran-6-yl)-4-(trifluoro-methyl)pyridazin-3-yl)-2-((tetrahydro-2H-pyran-4-yl)methyl-d2)octahydro-cyclopenta[c]pyrrol-5-amine]	3	55.3
[2H]C([2H])(C1CCOCC1)N1C[C@H]2C[C@H](Nc3nnc(-c4cc(F)cc(F)c4F)cc3C(F)(F)F)C[C@H]2C1 [Example 124, (3aR,5s,6aS)-2-((tetrahydro-2H-pyran-4-yl)methyl-d2)-N-(4-(trifluoromethyl)-6-(2,3,5-trifluorophenyl)pyridazin-3-yl)octahydrocyclopenta[c]pyrrol-5-amine]	3	173
[2H]C([2H])(C1CCOCC1)N1C[C@H]2C[C@H](Nc3nnc(-c4cc(F)c(F)cc4F)cc3C(F)(F)F)C[C@H]2C1 [Example 125, (3aR,5s,6aS)-2-((tetrahydro-2H-pyran-4-yl)methyl-d2)-N-(4-(trifluoromethyl)-6-(2,4,5-trifluorophenyl)pyridazin-3-yl)octahydro-cyclopenta[c]pyrrol-5-amine]	4	342
[2H]C([2H])(C1CCOCC1)N1C[C@H]2C[C@H](Nc3nnc(-c4ccc(C)cc4C)cc3C(F)(F)F)C[C@H]2C1 [Example 126, (3aR,5s,6aS)-N-(6-(2,4-dimethyl-phenyl)-4-(trifluoro-methyl)pyridazin-3-yl)-2-((tetrahydro-2H-pyran-4-yl)methyl-d2)octahydro-cyclopenta[c]pyrrol-5-amine]	3	94.2
[2H][C@@]1(Nc2nnc(-c3cccc(F)c3)cc2C(F)(F)F)C[C@H]2CN(CC3CCOCC3)C[C@H]2C1 [Example 127, (3aR,5s,6aS)-N-(6-(3-fluoro-phenyl)-4-(trifluoromethyl)pyridazin-3-yl)-2-((tetrahydro-2H-pyran-4-yl)methyl)octahydro-cyclopenta[c]pyrrol-5-d-5-amine]	3	64.7
[2H][C@@]1(Nc2nnc(-c3ccc4nn(C)cc4c3)cc2C(F)(F)F)C[C@H]2CN(CC3CCOCC3)C[C@H]2C1 [Example 128, (3aR,5s,6aS)-N-(6-(2-methyl-2H-indazol-5-yl)-4-(trifluoro-methyl)pyridazin-3-yl)-2-((tetrahydro-2H-pyran-4-yl)methyl)octahydro-cyclopenta[c]pyrrol-5-d-5-amine]	3	13.2
[2H]C([2H])(C1CCOCC1)N1C[C@H]2C[C@H](Nc3cc(C(F)(F)F)c(-c4cc(F)ccc4Cl)nn3)C[C@H]2C1 [Example 129, (3aR,5s,6aS)-N-(6-(2-chloro-5-fluorophenyl)-5-(trifluoro-methyl)pyridazin-3-yl)-2-((tetrahydro-2H-pyran-4-yl)methyl-d2)octahydrocyclopenta[c]pyrrol-5-amine]	2	2.3
[2H]C([2H])([2H])N(c1cc(C(F)(F)F)c(-c2cc(F)ccc2C)nn1)[C@H]1C[C@@H]2CN(CC3CCOCC3)C[C@@H]2C1 [Example 131, (3aR,5s,6aS)-N-(6-(5-fluoro-2-methylphenyl)-5-(trifluoromethyl)pyridazin-3-yl)-N-(methyl-d3)-2-((tetrahydro-2H-pyran-4-yl)methyl)octahydro-cyclopenta[c]pyrrol-5-amine]	2	60.3
